SMILES strings stand for the structures.

The first series has as its target T1, Nitric oxide synthase, inducible (Mus musculus, UniProt P29477).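 Note: inhibition of iNOS enzyme activity measured with L-arginine as substrate; in other assays of this panel Not Active means under 50% inhibition at 10 µM.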
T1 sequence (P29477 whole entry): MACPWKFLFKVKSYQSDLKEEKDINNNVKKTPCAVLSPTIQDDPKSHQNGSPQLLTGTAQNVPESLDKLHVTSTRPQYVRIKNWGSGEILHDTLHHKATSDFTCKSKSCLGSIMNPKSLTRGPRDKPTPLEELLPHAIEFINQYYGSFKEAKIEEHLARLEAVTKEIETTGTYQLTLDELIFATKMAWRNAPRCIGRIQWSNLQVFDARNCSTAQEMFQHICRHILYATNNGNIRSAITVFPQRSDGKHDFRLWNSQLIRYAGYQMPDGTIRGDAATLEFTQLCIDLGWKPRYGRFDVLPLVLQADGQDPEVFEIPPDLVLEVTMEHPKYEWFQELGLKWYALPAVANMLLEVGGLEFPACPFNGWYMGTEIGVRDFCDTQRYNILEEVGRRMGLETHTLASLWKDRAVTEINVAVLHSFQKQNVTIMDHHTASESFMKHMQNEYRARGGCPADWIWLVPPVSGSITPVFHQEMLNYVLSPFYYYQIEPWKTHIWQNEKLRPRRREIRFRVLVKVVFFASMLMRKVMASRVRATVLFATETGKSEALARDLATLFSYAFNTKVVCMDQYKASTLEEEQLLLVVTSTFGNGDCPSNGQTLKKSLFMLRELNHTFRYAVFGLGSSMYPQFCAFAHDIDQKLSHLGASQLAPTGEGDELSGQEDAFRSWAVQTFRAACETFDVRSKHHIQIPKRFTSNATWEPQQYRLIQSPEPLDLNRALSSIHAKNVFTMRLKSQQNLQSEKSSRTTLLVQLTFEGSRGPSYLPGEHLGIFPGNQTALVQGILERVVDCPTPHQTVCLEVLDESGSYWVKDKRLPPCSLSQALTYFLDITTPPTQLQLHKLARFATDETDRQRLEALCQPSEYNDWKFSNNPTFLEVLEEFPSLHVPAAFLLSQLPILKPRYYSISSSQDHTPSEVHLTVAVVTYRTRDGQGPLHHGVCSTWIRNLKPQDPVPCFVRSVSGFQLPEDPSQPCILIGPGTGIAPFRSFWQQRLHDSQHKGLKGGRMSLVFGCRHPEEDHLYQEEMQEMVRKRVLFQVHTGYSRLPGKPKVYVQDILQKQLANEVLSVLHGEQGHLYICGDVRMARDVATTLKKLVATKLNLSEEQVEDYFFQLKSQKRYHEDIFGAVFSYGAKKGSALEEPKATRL
More on the design: species or system Escherichia coli.
Conditions: not given
Turning to `N=C(N)NC(=O)Cc1c(Cl)cccc1Cl` [GUANFACINE], the IC50 result is “Not Active”.
Still for that read-out and setting: to `NNc1nncc2ccccc12` [HYDRALAZINE] belongs “Not Active”.
The same measure, in the same setting: to `CC(C)NNC(=O)c1ccncc1` [IPRONIAZID] belongs “Not Active”; to `NC(=O)C[S+]([O-])C(c1ccccc1)c1ccccc1` (configuration not stated) [MODAFINIL], “Not Active”.
With `CCN(CC)CCOCCC1=CCC2CC1C2(C)C` (configuration not stated) [MYRTECAINE], the IC50 result is recorded as “Not Active”.
For the compound `O=C(O)c1cccnc1Nc1cccc(C(F)(F)F)c1` [NIFLUMIC ACID], the IC50 result is on record as “Not Active”.
As to `COC(=O)Nc1nc2ccc(C(=O)c3cccs3)cc2[nH]1` [NOCODAZOLE], the IC50 result is on record as “Not Active”.

The target in a further series is Tyrosine-protein kinase Lck (Homo sapiens, UniProt P06239). The experiment in a line: DRUGMATRIX: Protein Tyrosine Kinase, LCK enzyme inhibition (substrate: Poly(Glu:Tyr)). The format is cell-based, Insect cells. The following applies: insect cells; Not Active = under 50% inhibition at 10 µM.
Chain of Tyrosine-protein kinase Lck (P06239 whole entry): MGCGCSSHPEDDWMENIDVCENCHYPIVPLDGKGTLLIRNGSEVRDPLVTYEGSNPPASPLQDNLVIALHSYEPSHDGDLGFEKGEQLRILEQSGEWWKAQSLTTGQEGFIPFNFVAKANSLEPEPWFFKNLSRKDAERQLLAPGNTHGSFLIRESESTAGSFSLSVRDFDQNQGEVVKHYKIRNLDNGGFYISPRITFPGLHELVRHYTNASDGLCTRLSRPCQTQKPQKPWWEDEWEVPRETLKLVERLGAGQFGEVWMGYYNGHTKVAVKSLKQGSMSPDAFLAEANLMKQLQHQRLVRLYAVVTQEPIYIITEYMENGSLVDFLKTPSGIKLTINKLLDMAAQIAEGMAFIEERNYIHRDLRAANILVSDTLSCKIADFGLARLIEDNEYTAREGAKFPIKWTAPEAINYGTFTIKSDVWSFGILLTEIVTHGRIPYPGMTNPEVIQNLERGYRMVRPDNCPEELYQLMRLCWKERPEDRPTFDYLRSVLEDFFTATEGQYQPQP
For the compound `N=C(N)NC(=O)Cc1c(Cl)cccc1Cl` [GUANFACINE], the IC50 result is listed as “Not Active”.
Same read-out and setting: to `NNc1nncc2ccccc12` [HYDRALAZINE] belongs “Not Active”.
On the same count and under the same terms, to `CC(C)NNC(=O)c1ccncc1` [IPRONIAZID] belongs “Not Active”.
Same read-out and setting: to `NC(=O)C[S+]([O-])C(c1ccccc1)c1ccccc1` (configuration not stated) [MODAFINIL] belongs “Not Active”; to `CCN(CC)CCOCCC1=CCC2CC1C2(C)C` (configuration not stated) [MYRTECAINE], “Not Active”; to `O=C(O)c1cccnc1Nc1cccc(C(F)(F)F)c1` [NIFLUMIC ACID], “Not Active”.
On to `COC(=O)Nc1nc2ccc(C(=O)c3cccs3)cc2[nH]1` [NOCODAZOLE], for which the IC50 result is on record as “Not Active”.

Tested on in the next series: not listed separately
The experiment in a line: DRUGMATRIX: Glutamate, NMDA, Phencyclidine radioligand binding (ligand: [3H] TCP). The format is cell membranes, Rattus norvegicus, Wistar, Cerebral cortex, Membrane. Particulars: Not Active = under 50% inhibition at 10 µM.
With `N=C(N)NC(=O)Cc1c(Cl)cccc1Cl` [GUANFACINE], the IC50 result was “Not Active” and the Ki result is “Not Active”.
Regarding `NNc1nncc2ccccc12` [HYDRALAZINE], the IC50 result was “Not Active” and the Ki entry is given as “Not Active”.
For the compound `CC(C)NNC(=O)c1ccncc1` [IPRONIAZID], the IC50 result is on record as “Not Active” and the Ki entry is recorded as “Not Active”.
On to `NC(=O)C[S+]([O-])C(c1ccccc1)c1ccccc1` (configuration not stated) [MODAFINIL], for which the IC50 result was “Not Active” and the Ki result is “Not Active”.
As for `CCN(CC)CCOCCC1=CCC2CC1C2(C)C` (configuration not stated) [MYRTECAINE], the IC50 result is recorded as “Not Active” and the Ki entry is on record as “Not Active”.
For `O=C(O)c1cccnc1Nc1cccc(C(F)(F)F)c1` [NIFLUMIC ACID], the IC50 result was “Not Active” and the Ki entry was “Not Active”.
In the case of `COC(=O)Nc1nc2ccc(C(=O)c3cccs3)cc2[nH]1` [NOCODAZOLE], the IC50 result was “Not Active” and the Ki result is “Not Active”.

The next series deals with Mitogen-activated protein kinase 1 (Homo sapiens, UniProt P28482). The experiment in a line: DRUGMATRIX: Protein Serine/Threonine Kinase, ERK2 enzyme inhibition (substrate: Myelin Basic Protein). On the set-up: species or system Escherichia coli. The following applies: Not Active = under 50% inhibition at 10 µM.
Chain of Mitogen-activated protein kinase 1 (P28482 whole entry): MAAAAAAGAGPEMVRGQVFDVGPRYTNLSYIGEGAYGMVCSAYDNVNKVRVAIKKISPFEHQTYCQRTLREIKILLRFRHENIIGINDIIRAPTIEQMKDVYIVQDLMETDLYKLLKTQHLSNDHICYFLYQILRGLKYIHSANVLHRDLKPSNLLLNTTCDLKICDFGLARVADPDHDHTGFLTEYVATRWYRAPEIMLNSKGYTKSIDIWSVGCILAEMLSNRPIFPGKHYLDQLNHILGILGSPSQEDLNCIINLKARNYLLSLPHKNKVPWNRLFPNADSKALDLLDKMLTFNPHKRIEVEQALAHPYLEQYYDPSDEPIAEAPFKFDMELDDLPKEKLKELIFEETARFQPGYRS
Take `N=C(N)NC(=O)Cc1c(Cl)cccc1Cl` [GUANFACINE]: the IC50 result was “Not Active”.
For the compound `NNc1nncc2ccccc12` [HYDRALAZINE], the IC50 result was “Not Active”.
On the same count and under the same terms, to `CC(C)NNC(=O)c1ccncc1` [IPRONIAZID] belongs “Not Active”; to `NC(=O)C[S+]([O-])C(c1ccccc1)c1ccccc1` (configuration not stated) [MODAFINIL], “Not Active”; to `CCN(CC)CCOCCC1=CCC2CC1C2(C)C` (configuration not stated) [MYRTECAINE], “Not Active”.
Same read-out and setting: to `O=C(O)c1cccnc1Nc1cccc(C(F)(F)F)c1` [NIFLUMIC ACID] belongs “Not Active”; to `COC(=O)Nc1nc2ccc(C(=O)c3cccs3)cc2[nH]1` [NOCODAZOLE], “Not Active”.

The next series deals with T2, Cytochrome P450 1A2 (Homo sapiens, UniProt P05177).
T2 sequence (P05177 whole entry): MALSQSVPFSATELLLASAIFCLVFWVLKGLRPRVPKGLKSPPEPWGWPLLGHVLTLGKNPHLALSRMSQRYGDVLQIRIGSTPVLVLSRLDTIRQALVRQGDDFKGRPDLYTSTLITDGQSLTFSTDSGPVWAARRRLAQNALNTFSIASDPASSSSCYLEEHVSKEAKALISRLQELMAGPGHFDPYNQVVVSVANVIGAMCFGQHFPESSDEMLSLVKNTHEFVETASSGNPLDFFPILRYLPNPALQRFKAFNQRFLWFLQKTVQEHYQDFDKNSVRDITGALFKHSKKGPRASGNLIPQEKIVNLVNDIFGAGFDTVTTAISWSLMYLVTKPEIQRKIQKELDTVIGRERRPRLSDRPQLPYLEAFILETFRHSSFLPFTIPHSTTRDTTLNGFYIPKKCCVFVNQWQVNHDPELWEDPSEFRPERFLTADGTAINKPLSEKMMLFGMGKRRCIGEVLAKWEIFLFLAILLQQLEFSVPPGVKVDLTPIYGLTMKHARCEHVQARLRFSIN
Particulars: bti-tn-5b1-4.
As to `N=C(N)NC(=O)Cc1c(Cl)cccc1Cl` [GUANFACINE], the IC50 entry was “Not Active” and the Ki entry is listed as “Not Active”.
`NNc1nncc2ccccc12` [HYDRALAZINE]: the IC50 result is on record as “Not Active” and the Ki entry was “Not Active”.
For `CC(C)NNC(=O)c1ccncc1` [IPRONIAZID], the IC50 result is reported as “Not Active” and the Ki result was “Not Active”.
In the case of `NC(=O)C[S+]([O-])C(c1ccccc1)c1ccccc1` (configuration not stated) [MODAFINIL], the IC50 entry is listed as “Not Active” and the Ki entry was “Not Active”.
As for `CCN(CC)CCOCCC1=CCC2CC1C2(C)C` (configuration not stated) [MYRTECAINE], the IC50 result is “Not Active” and the Ki result is “Not Active”.
On to `O=C(O)c1cccnc1Nc1cccc(C(F)(F)F)c1` [NIFLUMIC ACID], for which the IC50 result was “Not Active” and the Ki entry is reported as “Not Active”.
As for `COC(=O)Nc1nc2ccc(C(=O)c3cccs3)cc2[nH]1` [NOCODAZOLE], the IC50 result is reported as “Not Active” and the Ki result is recorded as “Not Active”.

The target in the next series is Carbonic anhydrase 2 (Homo sapiens, UniProt P00918). The experiment in a line: DRUGMATRIX: Carbonic Anhydrase II enzyme inhibition (substrate: 4-Nitrophenyl acetate (4-NPA)). The format is tissue-based. The following applies: erythrocyte; Not Active = under 50% inhibition at 10 µM.
With `N=C(N)NC(=O)Cc1c(Cl)cccc1Cl` [GUANFACINE], the IC50 result was “Not Active”.
On the same count and under the same terms, to `NNc1nncc2ccccc12` [HYDRALAZINE] belongs “Not Active”; to `CC(C)NNC(=O)c1ccncc1` [IPRONIAZID], “Not Active”; to `NC(=O)C[S+]([O-])C(c1ccccc1)c1ccccc1` (configuration not stated) [MODAFINIL], “Not Active”.
For `CCN(CC)CCOCCC1=CCC2CC1C2(C)C` (configuration not stated) [MYRTECAINE], the IC50 entry is “Not Active”.
For `O=C(O)c1cccnc1Nc1cccc(C(F)(F)F)c1` [NIFLUMIC ACID], the IC50 result is recorded as “Not Active”.
Turning to `COC(=O)Nc1nc2ccc(C(=O)c3cccs3)cc2[nH]1` [NOCODAZOLE], the IC50 entry is listed as “Not Active”.

The target in the next series is Cytochrome P450 2C19 (Homo sapiens, UniProt P33261). The following applies: bti-tn-5b1-4. Note: in other assays of this panel Not Active means under 50% inhibition at 10 µM.
Chain of Cytochrome P450 2C19 (P33261 whole entry): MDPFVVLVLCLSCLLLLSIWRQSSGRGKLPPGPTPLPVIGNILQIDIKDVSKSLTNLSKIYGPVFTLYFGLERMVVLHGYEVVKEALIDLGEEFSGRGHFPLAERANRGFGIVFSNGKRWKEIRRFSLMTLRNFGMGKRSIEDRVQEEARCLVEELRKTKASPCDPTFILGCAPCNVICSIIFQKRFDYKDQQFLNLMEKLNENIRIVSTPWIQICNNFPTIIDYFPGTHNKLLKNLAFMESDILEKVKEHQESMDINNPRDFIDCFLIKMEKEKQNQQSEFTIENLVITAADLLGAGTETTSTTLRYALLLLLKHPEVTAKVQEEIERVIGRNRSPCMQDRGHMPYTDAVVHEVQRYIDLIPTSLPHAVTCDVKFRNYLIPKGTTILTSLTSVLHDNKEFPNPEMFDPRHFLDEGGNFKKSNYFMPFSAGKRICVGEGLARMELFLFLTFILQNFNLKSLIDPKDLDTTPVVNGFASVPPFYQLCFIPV
Regarding `N=C(N)NC(=O)Cc1c(Cl)cccc1Cl` [GUANFACINE], the IC50 result is on record as “Not Active” and the Ki entry is given as “Not Active”.
Turning to `NNc1nncc2ccccc12` [HYDRALAZINE], the IC50 entry is given as “Not Active” and the Ki entry is “Not Active”.
For the compound `CC(C)NNC(=O)c1ccncc1` [IPRONIAZID], the IC50 result is given as “Not Active” and the Ki entry is on record as “Not Active”.
Consider `NC(=O)C[S+]([O-])C(c1ccccc1)c1ccccc1` (configuration not stated) [MODAFINIL], for which the IC50 entry is “Not Active” and the Ki result is on record as “Not Active”.
For `CCN(CC)CCOCCC1=CCC2CC1C2(C)C` (configuration not stated) [MYRTECAINE], the IC50 entry is recorded as “Not Active” and the Ki entry is “Not Active”.
For `O=C(O)c1cccnc1Nc1cccc(C(F)(F)F)c1` [NIFLUMIC ACID], the IC50 entry was “Not Active” and the Ki entry is “Not Active”.
Take `COC(=O)Nc1nc2ccc(C(=O)c3cccs3)cc2[nH]1` [NOCODAZOLE]: the IC50 result was “Not Active” and the Ki entry is listed as “Not Active”.

The target of a further series is T3, D(4) dopamine receptor (Homo sapiens, UniProt P21917).
T3 sequence (P21917 whole entry): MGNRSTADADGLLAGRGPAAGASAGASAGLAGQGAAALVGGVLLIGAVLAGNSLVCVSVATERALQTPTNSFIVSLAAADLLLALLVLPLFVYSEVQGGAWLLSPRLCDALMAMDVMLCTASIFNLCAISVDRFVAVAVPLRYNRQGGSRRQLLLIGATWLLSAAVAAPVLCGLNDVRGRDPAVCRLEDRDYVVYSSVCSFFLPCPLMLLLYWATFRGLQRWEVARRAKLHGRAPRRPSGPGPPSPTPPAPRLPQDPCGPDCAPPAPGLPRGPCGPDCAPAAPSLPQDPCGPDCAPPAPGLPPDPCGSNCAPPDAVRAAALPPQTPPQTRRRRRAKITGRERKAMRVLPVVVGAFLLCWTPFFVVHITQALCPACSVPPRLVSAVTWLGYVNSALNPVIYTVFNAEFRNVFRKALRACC
The experiment in a line: DRUGMATRIX: Dopamine D4.2 radioligand binding (ligand: [3H] Spiperone). The format is cell membranes, CHO-K1, Membrane. Particulars: cho-k1; Not Active = under 50% inhibition at 10 µM.
Consider `N=C(N)NC(=O)Cc1c(Cl)cccc1Cl` [GUANFACINE], for which the IC50 result is recorded as “Not Active”.
On the same count and under the same terms, to `NNc1nncc2ccccc12` [HYDRALAZINE] belongs “Not Active”.
The same measure, in the same setting: to `CC(C)NNC(=O)c1ccncc1` [IPRONIAZID] belongs “Not Active”; to `NC(=O)C[S+]([O-])C(c1ccccc1)c1ccccc1` (configuration not stated) [MODAFINIL], “Not Active”; to `CCN(CC)CCOCCC1=CCC2CC1C2(C)C` (configuration not stated) [MYRTECAINE], “Not Active”.
Still for that read-out and setting: to `O=C(O)c1cccnc1Nc1cccc(C(F)(F)F)c1` [NIFLUMIC ACID] belongs “Not Active”; to `COC(=O)Nc1nc2ccc(C(=O)c3cccs3)cc2[nH]1` [NOCODAZOLE], “Not Active”.
